Here are results for 32 compounds from patent US20230277534A1 (Plexxikon Inc., priority 2011, published 2023).

Where only a bound is given, the exact number is not on record here.

The subject of experiment [1] is IPC-298 human melanoma cell line that expresses activated NRAS. As to the kind of experiment: IPC-298_P-ERK cell activation assay (phosphorylated ERK, AlphaScreen). The settings on record: IPC-298 cells, P-ERK activation. It is filed as cell-based. The procedure: B9 is a squamous cell carcinoma cell line expressing activated HRAS that was isolated from a DMBA/TPA-induced mouse model of skin carcinogenesis (Stoler, et al. The Journal of Cell Biology, 1993, 122(5), 1103-17). IPC-298 is a human melanoma cell line that expresses activated NRAS (Aubert, et al. International Journal of Cancer, 1993, 54(5), 784-92). To determine whether compounds induce phosphorylated ERK and MEK, cells are plated in a 96-well dish and treated with an 8-point titration of compound for one hour at 37° C. The media is then removed and the cells are incubated with lysis buffer containing protease and phosphatase inhibitors. Phosphorylated ERK and MEK in the resulting lysates is detected using AlphaScreen™ technology. To detect phosphorylated ERK, cell lysates are incubated with streptavidin-coated donor beads, anti-mouse IgG acceptor beads, a biotinylated anti-ERK1/2 rabbit antibody, and a mouse antibody that recognizes ERK1/2 only when it is phosphorylated on Thr202 and Tyr204. The biotinylated ERK1/2 antibody will bind to both the streptavidin-coated donor beads and to ERK1/2 (regardless of its phosphorylation state), and the phospho-ERK1/2 antibody will bind to the acceptor beads and to ERK1/2 that is phosphorylated at Thr202/Tyr204. Excitation of the beads with laser light at 680 nm produces singlet oxygen, which is rapidly quenched unless the beads are in close proximity. When ERK is phosphorylated, both antibodies can bind the same protein, bringing the donor and acceptor beads into close proximity, producing a signal that can be measured at 580 nm. MEK phosphorylation is detected using a similar approach, only with antibodies directed against total MEK1/2 and MEK1/2 that is phosphorylated at Ser217 and Ser221.

Experiment [2] has as its system COLO205 colon adenocarcinoma cells (B-Raf V600E mutation). The experiment is described as follows: COLO205 cell growth inhibition (ATPlite). The following applies: Homo sapiens, COLO 205, 72 h, 3 days. It is filed as cell-based. In short, it runs like this: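 Cells treated for 3 days at 37 °C, 5% CO2 with an 8-point 1:3 dilution series, top final concentration 10 μM, DMSO control. ATPlite luminescence used as a measure of cell number; IC50 from reading versus concentration.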
(In general: In ATP-based viability assays light output follows the ATP content of the culture.)

The next experiment deals with B-Raf V600E (Homo sapiens (Human), UniProt P15056, V600E). As to the kind of experiment: B-Raf V600E kinase biochemical activity assay (AlphaScreen, biotin-MEK1 substrate). The settings on record: 100 μM ATP. In short, it runs like this:
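B-Raf V600E (0.1 ng) phosphorylated 100 nM biotin-MEK1 with 100 μM ATP (final) in HEPES pH 7.0 with Mg2+/Mn2+ for 45 min at room temperature. Compounds were tested over an 8-point serial dilution. Phospho-MEK1/2 was detected by AlphaScreen after 3 h with beads, and IC50 came from signal versus concentration.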
(In Alpha technology, singlet oxygen from a donor bead excites a nearby acceptor bead.)

Sequence of B-Raf V600E (P15056 whole entry V600E): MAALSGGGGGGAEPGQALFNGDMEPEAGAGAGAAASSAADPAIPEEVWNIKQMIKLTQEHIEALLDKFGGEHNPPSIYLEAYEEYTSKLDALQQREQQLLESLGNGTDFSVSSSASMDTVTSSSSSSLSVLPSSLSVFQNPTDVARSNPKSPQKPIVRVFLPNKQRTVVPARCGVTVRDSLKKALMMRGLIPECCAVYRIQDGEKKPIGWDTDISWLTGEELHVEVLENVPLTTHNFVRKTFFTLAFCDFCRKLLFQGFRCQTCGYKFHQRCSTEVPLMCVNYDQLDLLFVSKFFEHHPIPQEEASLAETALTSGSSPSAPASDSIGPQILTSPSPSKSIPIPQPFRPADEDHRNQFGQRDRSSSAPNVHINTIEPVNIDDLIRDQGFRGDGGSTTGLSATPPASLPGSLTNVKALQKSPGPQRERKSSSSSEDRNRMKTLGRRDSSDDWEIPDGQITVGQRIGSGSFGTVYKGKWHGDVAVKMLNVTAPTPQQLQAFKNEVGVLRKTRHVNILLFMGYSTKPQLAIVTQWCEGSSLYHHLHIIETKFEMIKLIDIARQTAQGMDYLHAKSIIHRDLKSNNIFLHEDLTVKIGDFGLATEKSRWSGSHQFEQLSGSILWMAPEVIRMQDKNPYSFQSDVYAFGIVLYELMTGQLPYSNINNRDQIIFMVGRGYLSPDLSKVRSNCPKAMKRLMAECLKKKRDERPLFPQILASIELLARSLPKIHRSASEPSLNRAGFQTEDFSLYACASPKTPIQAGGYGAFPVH

Turning to `COc1ncc(-c2cnc3[nH]cc(C(=O)c4c(F)ccc(NS(=O)(=O)c5cc(F)ccc5F)c4F)c3c2)cn1`, the concentration for a half-maximal effect (EC50) in experiment [1] (compounds known in the art) was < 1 µM.

In the case of `COc1ncc(-c2cnc3[nH]cc(C(=O)c4c(F)ccc(NS(=O)(=O)c5ccccc5F)c4F)c3c2)cn1`, in experiment [1] (compounds known in the art), the concentration for a half-maximal effect (EC50) is < 0.5 µM.

`CCCS(=O)(=O)Nc1ccc(F)c(C(=O)c2c[nH]c3ncc(Cl)cc23)c1F`: the EC50 in experiment [1] (compounds known in the art) was < 0.5 µM.

As to `CCN(C)S(=O)(=O)Nc1ccc(F)c(C(=O)c2c[nH]c3ncc(-c4cnc(OC)nc4)cc23)c1F` [Compound P-0014], in experiment [1] (1 h, compound for one hour), the concentration for a half-maximal effect (EC50) is > 8 µM. Further, the IC50 in experiment [2] was < 1 µM.

`O=C(c1c(F)ccc(NS(=O)(=O)N2CCCC2)c1F)c1c[nH]c2ncc(F)c(I)c12` [Compound P-0015, N-[2,4-difluoro-3-(5-fluoro-4-iodo-1H-pyrrolo[2,3-b]pyridine-3-carbonyl)phenyl]pyrrolidine-1-sulfonamide]: the EC50 in experiment [1] (1 h, compound for one hour) is > 10 µM. Also, the IC50 at B-Raf V600E is < 0.1 µM.

Consider `CCN(C)S(=O)(=O)Nc1cccc(C(=O)c2c[nH]c3ncc(-c4ccc(Cl)cc4)cc23)c1F` [Compound P-0019], for which the concentration giving a half-maximal response (EC50) in experiment [1] (1 h, compound for one hour) is > 10 µM. Moreover, the half-inhibitory concentration (IC50) in experiment [2] was > 1 µM.

In the case of `CCN(C)S(=O)(=O)Nc1cccc(C(=O)c2c[nH]c3ncc(-c4cnc(OC)nc4)cc23)c1F` [Compound P-0020], in experiment [1] (1 h, compound for one hour), the EC50 was > 10 µM. Further, the IC50 in experiment [2] is < 1 µM.

With `O=C(c1c(F)ccc(NS(=O)(=O)N2CCCC2)c1F)c1c[nH]c2ncc(-c3ccc(Cl)cc3)cc12` [Compound P-0021], the EC50 in experiment [1] (1 h, compound for one hour) is > 10 µM. Also, the concentration for half-maximal inhibition (IC50) against B-Raf V600E was < 0.1 µM.

In the case of `CN(C)c1ncc(-c2cnc3[nH]cc(C(=O)c4c(F)ccc(NS(=O)(=O)N5CCCC5)c4F)c3c2)cn1` [Compound P-0022], in experiment [1] (1 h, compound for one hour), the concentration giving a half-maximal response (EC50) was > 10 µM.

As for `O=C(c1c(F)ccc(NS(=O)(=O)N2CCCC2)c1F)c1c[nH]c2ncc(I)cc12` [Compound P-0024], the half-maximal effective concentration (EC50) in experiment [1] (1 h, compound for one hour) is > 10 µM.

For `COc1ncc(-c2cnc3[nH]cc(C(=O)c4cccc(NS(=O)(=O)N(C)C5CC5)c4F)c3c2)cn1` [Compound P-0025], the concentration giving a half-maximal response (EC50) in experiment [1] (1 h, compound for one hour) is > 10 µM. In addition, the IC50 in experiment [2] is < 1 µM.

Take `CNS(=O)(=O)Nc1cccc(C(=O)c2c[nH]c3ncc(-c4cnc(OC)nc4)cc23)c1F` [Compound P-0026]: the EC50 in experiment [1] (1 h, compound for one hour) is > 10 µM.

Take `Cc1ccc(-c2cnc3[nH]cc(C(=O)c4cccc(NS(=O)(=O)N(C)C)c4F)c3c2)cn1` [Compound P-0029]: the EC50 in experiment [1] (1 h, compound for one hour) was > 10 µM.

With `CN(C)c1ccc(-c2cnc3[nH]cc(C(=O)c4cccc(NS(=O)(=O)N(C)C)c4F)c3c2)cn1` [Compound P-0030], in experiment [1] (1 h, compound for one hour), the concentration for a half-maximal effect (EC50) was > 10 µM.

`CCN(C)S(=O)(=O)Nc1cccc(C(=O)c2c[nH]c3ncc(-c4ccc(C#N)cc4)cc23)c1F` [Compound P-0031]: in experiment [1] (1 h, compound for one hour), the EC50 was > 10 µM.

Turning to `CCN(C)S(=O)(=O)Nc1cccc(C(=O)c2c[nH]c3ncc(-c4cccnc4)cc23)c1F` [Compound P-0032], the half-maximal effective concentration (EC50) in experiment [1] (1 h, compound for one hour) is > 10 µM.

Turning to `CCN(C)S(=O)(=O)Nc1cccc(C(=O)c2c[nH]c3ncc(-c4ccc(C)nc4)cc23)c1F` [Compound P-0033], the concentration for a half-maximal effect (EC50) in experiment [1] (1 h, compound for one hour) is > 10 µM. Moreover, the IC50 in experiment [2] is < 1 µM.

In the case of `CCN(C)S(=O)(=O)Nc1cccc(C(=O)c2c[nH]c3ncc(-c4ccc(F)cc4)cc23)c1F` [Compound P-0034], the EC50 in experiment [1] (1 h, compound for one hour) was > 10 µM. The IC50 in experiment [2] is > 1 µM.

Turning to `CN(C)S(=O)(=O)Nc1cccc(C(=O)c2c[nH]c3ncc(-c4ccc(F)cc4)cc23)c1F` [Compound P-0035], the EC50 in experiment [1] (1 h, compound for one hour) is > 10 µM. Moreover, the IC50 in experiment [2] is > 1 µM.

As for `CCN(C)S(=O)(=O)Nc1cccc(C(=O)c2c[nH]c3ncc(-c4ccccc4)cc23)c1F` [Compound P-0036, 3-[3-[[ethyl(methyl)sulfamoyl]amino]-2-fluoro-benzoyl]-5-phenyl-1H-pyrrolo[2,3-b]pyridine], the half-maximal effective concentration (EC50) in experiment [1] (1 h, compound for one hour) was > 10 µM. Besides, the concentration for half-maximal inhibition (IC50) at B-Raf V600E is < 0.1 µM.

With `CN(C)S(=O)(=O)Nc1cccc(C(=O)c2c[nH]c3ncc(-c4ccccc4)cc23)c1F` [Compound P-0037, 3-[3-(dimethylsulfamoylamino)-2-fluoro-benzoyl]-5-phenyl-1H-pyrrolo[2,3-b]pyridine], in experiment [1] (1 h, compound for one hour), the EC50 was > 10 µM. Further, at B-Raf V600E, the IC50 is < 0.1 µM.

With `CCN(C)S(=O)(=O)Nc1cccc(C(=O)c2c[nH]c3ncc(C#N)cc23)c1F` [Compound P-0039, 5-cyano-3-[3-[[ethyl(methyl)sulfamoyl]amino]-2-fluoro-benzoyl]-1H-pyrrolo[2,3-b]pyridine], the half-maximal effective concentration (EC50) in experiment [1] (1 h, compound for one hour) was > 10 µM. Also, in experiment [2], the IC50 was > 1 µM.

Regarding `COc1ncc(-c2cnc3[nH]cc(C(=O)c4cccc(NS(=O)(=O)N5CCC(OCc6ccccc6)C5)c4F)c3c2)cn1` (stereo not drawn) [Compound P-0041, 3-benzyloxy-N-[2-fluoro-3-[5-(2-methoxypyrimidin-5-yl)-1H-pyrrolo[2,3-b]pyridine-3-carbonyl]phenyl]pyrrolidine-1-sulfonamide], the EC50 in experiment [1] (1 h, compound for one hour) is > 10 µM. Further, the concentration for half-maximal inhibition (IC50) at B-Raf V600E was > 0.1 µM.

On to `Cn1cc(-c2cnc3[nH]cc(C(=O)c4cccc(NS(=O)(=O)CC5CC5)c4F)c3c2)cn1` [Compound P-0042, 1-cyclopropyl-N-[2-fluoro-3-[5-(1-methylpyrazol-4-yl)-1H-pyrrolo[2,3-b]pyridine-3-carbonyl]phenyl]methanesulfonamide], for which the half-maximal effective concentration (EC50) in experiment [1] (1 h, compound for one hour) is > 10 µM. For the same compound, the half-inhibitory concentration (IC50) in experiment [2] is < 1 µM.

Regarding `COc1ncc(-c2cnc3[nH]cc(C(=O)c4cccc(NS(=O)(=O)N5CCCC5)c4F)c3c2)c(OC)n1` [Compound P-0044, N-[3-[5-(2,4-dimethoxypyrimidin-5-yl)-1H-pyrrolo[2,3-b]pyridine-3-carbonyl]-2-fluoro-phenyl]pyrrolidine-1-sulfonamide], the 50% effective concentration (EC50) in experiment [1] (1 h, compound for one hour) is > 10 µM. Also, the concentration for half-maximal inhibition (IC50) in experiment [2] is < 1 µM.

Consider `CN(C)c1ccc(-c2cnc3[nH]cc(C(=O)c4cccc(NS(=O)(=O)N5CCCC5)c4F)c3c2)cn1` [Compound P-0046, N-[3-[5-[6-(dimethylamino)-3-pyridyl]-1H-pyrrolo[2,3-b]pyridine-3-carbonyl]-2-fluoro-phenyl]pyrrolidine-1-sulfonamide], for which the EC50 in experiment [1] (1 h, compound for one hour) was > 10 µM. The 50% inhibitory concentration (IC50) at B-Raf V600E was < 0.1 µM.

Consider `CCN(C)S(=O)(=O)Nc1cccc(C(=O)c2c[nH]c3ncc(-c4ccc(C5(C#N)CC5)cc4)cc23)c1F` [Compound P-0061, 5-[4-(1-cyanocyclopropyl)phenyl]-3-[3-[[ethyl(methyl)sulfamoyl]amino]-2-fluoro-benzoyl]-1H-pyrrolo[2,3-b]pyridine], for which the EC50 in experiment [1] (1 h, compound for one hour) was > 10 µM. Further, on B-Raf V600E, the IC50 was < 0.1 µM.

`COc1cc(-c2cnc3[nH]cc(C(=O)c4c(F)ccc(NS(=O)(=O)N5CCCC5)c4F)c3c2)ccn1` [Compound P-0287, N-[2,4-difluoro-3-[5-(2-methoxy-4-pyridyl)-1H-pyrrolo[2,3-b]pyridine-3-carbonyl]phenyl]pyrrolidine-1-sulfonamide]: the EC50 in experiment [1] (1 h, compound for one hour) was > 4 µM. Further, the IC50 in experiment [2] is < 1 µM.

`O=C(c1c(F)ccc(NS(=O)(=O)N2CCC(F)(F)C2)c1F)c1c[nH]c2ncc(-c3cnc(C4CC4)nc3)cc12` [Compound P-0288, N-[3-[5-(2-cyclopropylpyrimidin-5-yl)-1H-pyrrolo[2,3-b]pyridine-3-carbonyl]-2,4-difluoro-phenyl]-3,3-difluoro-pyrrolidine-1-sulfonamide]: the EC50 in experiment [1] (1 h, compound for one hour) was > 2 µM. On B-Raf V600E, the concentration for half-maximal inhibition (IC50) is < 0.1 µM.

With `CCN(C)S(=O)(=O)Nc1ccc(F)c(C(=O)c2c[nH]c3ncc(-c4ccc(C#N)cc4)cc23)c1F` [Compound P-0300, 5-(4-cyanophenyl)-3-[3-[[ethyl(methyl)sulfamoyl]amino]-2,6-difluoro-benzoyl]-1H-pyrrolo[2,3-b]pyridine], the EC50 in experiment [1] (1 h, compound for one hour) was > 4 µM. At B-Raf V600E, the IC50 is < 0.1 µM.

Consider `NS(=O)(=O)Nc1ccc(F)c(C(=O)c2c[nH]c3ncc(-c4cnc(C5CC5)nc4)cc23)c1F` [Compound P-0336, 5-(2-cyclopropylpyrimidin-5-yl)-3-[2,6-difluoro-3-(sulfamoylamino)benzoyl]-1H-pyrrolo[2,3-b]pyridine], for which the concentration giving a half-maximal response (EC50) in experiment [1] (1 h, compound for one hour) is > 4 µM. On B-Raf V600E, the IC50 is > 0.1 µM.

Turning to `CN(CC(F)(F)F)S(=O)(=O)Nc1ccc(F)c(C(=O)c2c[nH]c3ncc(-c4cnc(C5CC5)nc4)cc23)c1F` [Compound P-0340, 5-(2-cyclopropylpyrimidin-5-yl)-3-[2,6-difluoro-3-[[methyl(2,2,2-trifluoroethyl)sulfamoyl]amino]benzoyl]-1H-pyrrolo[2,3-b]pyridine], the IC50 was < 1 µM in experiment [2] and < 0.1 µM against B-Raf V600E.

One may read the EC50 as the concentration that produces a half-maximal response. The low end stands for higher potency in that assay, the high end for lower potency in that assay. A word on the IC50: it is the concentration that gives 50% inhibition. A higher IC50 goes with lower potency.
